# Calls of active or inactive are those of the source. No rule for the calls is given here.
# System: CCRIS mutagenicity, Ames/micronucleus/aberration tests
# Experiment: CCRIS mutagenicity studies
# [1] = Test System: AMES SALMONELLA TYPHIMURIUM, Strain/Indicator: TA98, Metabolic Activation: NONE, Method: PREINCUBATION
# [2] = Test System: AMES SALMONELLA TYPHIMURIUM, Strain/Indicator: TA100, Metabolic Activation: NONE, Method: PREINCUBATION
# [3] = Test System: AMES SALMONELLA TYPHIMURIUM, Strain/Indicator: TA1535, Metabolic Activation: NONE, Method: PREINCUBATION
# [4] = Test System: AMES SALMONELLA TYPHIMURIUM, Strain/Indicator: TA1537, Metabolic Activation: NONE, Method: PREINCUBATION
# [5] = Test System: AMES SALMONELLA TYPHIMURIUM, Strain/Indicator: TA98, Metabolic Activation: NONE, Method: STANDARD PLATE
# [6] = Test System: AMES SALMONELLA TYPHIMURIUM, Strain/Indicator: TA100, Metabolic Activation: NONE, Method: STANDARD PLATE
smiles,measurement,setting,value
CC1=CC[C@H]2C(C)=CC[C@@H](C(C)C)[C@@H]2C1,mutagenic call,"End Point: IN VITRO CHROMOSOMAL ABERRATIONS, Test System: CHINESE HAMSTER OVARY CELLS, Metabolic Activation: NONE",inactive; negative
same,mutagenic call,"End Point: IN VITRO CHROMOSOMAL ABERRATIONS, Test System: CHINESE HAMSTER OVARY CELLS, Metabolic Activation: RAT, LIVER, S-9, AROCLOR 1254",inactive; negative
same,mutagenic call,"Test System: AMES SALMONELLA TYPHIMURIUM, Strain/Indicator: TA98, Metabolic Activation: HAMSTER, LIVER, S-9, AROCLOR 1254, Method: PREINCUBATION",inactive; negative
same,mutagenic call,[1],inactive; negative
same,mutagenic call,"Test System: AMES SALMONELLA TYPHIMURIUM, Strain/Indicator: TA98, Metabolic Activation: RAT, LIVER, S-9, AROCLOR 1254, Method: PREINCUBATION",inactive; negative
same,mutagenic call,"Test System: AMES SALMONELLA TYPHIMURIUM, Strain/Indicator: TA100, Metabolic Activation: HAMSTER, LIVER, S-9, AROCLOR 1254, Method: PREINCUBATION",inactive; negative
same,mutagenic call,[2],inactive; negative
same,mutagenic call,"Test System: AMES SALMONELLA TYPHIMURIUM, Strain/Indicator: TA100, Metabolic Activation: RAT, LIVER, S-9, AROCLOR 1254, Method: PREINCUBATION",inactive; negative
same,mutagenic call,"Test System: AMES SALMONELLA TYPHIMURIUM, Strain/Indicator: TA1535, Metabolic Activation: HAMSTER, LIVER, S-9, AROCLOR 1254, Method: PREINCUBATION",inactive; negative
same,mutagenic call,[3],inactive; negative
same,mutagenic call,"Test System: AMES SALMONELLA TYPHIMURIUM, Strain/Indicator: TA1535, Metabolic Activation: RAT, LIVER, S-9, AROCLOR 1254, Method: PREINCUBATION",inactive; negative
same,mutagenic call,"Test System: AMES SALMONELLA TYPHIMURIUM, Strain/Indicator: TA1537, Metabolic Activation: HAMSTER, LIVER, S-9, AROCLOR 1254, Method: PREINCUBATION",inactive; negative
same,mutagenic call,[4],inactive; negative
same,mutagenic call,"Test System: AMES SALMONELLA TYPHIMURIUM, Strain/Indicator: TA1537, Metabolic Activation: RAT, LIVER, S-9, AROCLOR 1254, Method: PREINCUBATION",inactive; negative
[Ag][I],mutagenic call,"Test System: AMES SALMONELLA TYPHIMURIUM, Strain/Indicator: TA97, Metabolic Activation: NONE, Method: STANDARD PLATE",inactive; negative
same,mutagenic call,"Test System: AMES SALMONELLA TYPHIMURIUM, Strain/Indicator: TA97, Metabolic Activation: RAT LIVER S-9, AROCLOR 1254, Method: STANDARD PLATE",active; positive
same,mutagenic call,[5],inactive; negative
same,mutagenic call,"Test System: AMES SALMONELLA TYPHIMURIUM, Strain/Indicator: TA98, Metabolic Activation: RAT LIVER S-9, AROCLOR 1254, Method: STANDARD PLATE",inactive; negative
same,mutagenic call,"Test System: AMES SALMONELLA TYPHIMURIUM, Strain/Indicator: TA102, Metabolic Activation: NONE, Method: STANDARD PLATE",active; positive
same,mutagenic call,"Test System: AMES SALMONELLA TYPHIMURIUM, Strain/Indicator: TA102, Metabolic Activation: RAT LIVER S-9, AROCLOR 1254, Method: STANDARD PLATE",inactive; negative
same,mutagenic call,"Test System: AMES SALMONELLA TYPHIMURIUM, Strain/Indicator: TA1535, Metabolic Activation: NONE, Method: STANDARD PLATE",inactive; negative
same,mutagenic call,"Test System: AMES SALMONELLA TYPHIMURIUM, Strain/Indicator: TA1535, Metabolic Activation: RAT LIVER S-9, AROCLOR 1254, Method: STANDARD PLATE",inactive; negative
COc1ccc(NC(=O)c2csc([N+](=O)[O-])c2)cc1,mutagenic call,[5],active; positive
same,mutagenic call,[6],active; positive
Nc1ccc(-c2ccc(N)cc2[N+](=O)[O-])c([N+](=O)[O-])c1,mutagenic call,[1],active; positive
same,mutagenic call,"Test System: AMES SALMONELLA TYPHIMURIUM, Strain/Indicator: TA98, Metabolic Activation: RAT, LIVER, S-9, KANECHLOR 500, Method: PREINCUBATION",active; positive
CCN,mutagenic call,"Test System: AMES SALMONELLA TYPHIMURIUM, Strain/Indicator: TA98, Metabolic Activation: HAMSTER, LIVER, S-9, AROCLOR 1254 (10%), Method: PREINCUBATION",inactive; negative
same,mutagenic call,[1],inactive; negative
same,mutagenic call,"Test System: AMES SALMONELLA TYPHIMURIUM, Strain/Indicator: TA98, Metabolic Activation: RAT, LIVER, S-9, AROCLOR 1254 (10%), Method: PREINCUBATION",inactive; negative
same,mutagenic call,"Test System: AMES SALMONELLA TYPHIMURIUM, Strain/Indicator: TA100, Metabolic Activation: HAMSTER, LIVER, S-9, AROCLOR 1254 (10%), Method: PREINCUBATION",inactive; negative
same,mutagenic call,[2],inactive; negative
same,mutagenic call,"Test System: AMES SALMONELLA TYPHIMURIUM, Strain/Indicator: TA100, Metabolic Activation: RAT, LIVER, S-9, AROCLOR 1254 (10%), Method: PREINCUBATION",inactive; negative
same,mutagenic call,"Test System: AMES SALMONELLA TYPHIMURIUM, Strain/Indicator: TA1535, Metabolic Activation: HAMSTER, LIVER, S-9, AROCLOR 1254 (10%), Method: PREINCUBATION",inactive; negative
same,mutagenic call,[3],inactive; negative
same,mutagenic call,"Test System: AMES SALMONELLA TYPHIMURIUM, Strain/Indicator: TA1535, Metabolic Activation: RAT, LIVER, S-9, AROCLOR 1254 (10%), Method: PREINCUBATION",inactive; negative
same,mutagenic call,"Test System: AMES SALMONELLA TYPHIMURIUM, Strain/Indicator: TA1537, Metabolic Activation: HAMSTER, LIVER, S-9, AROCLOR 1254 (10%), Method: PREINCUBATION",inactive; negative
same,mutagenic call,[4],inactive; negative
same,mutagenic call,"Test System: AMES SALMONELLA TYPHIMURIUM, Strain/Indicator: TA1537, Metabolic Activation: RAT, LIVER, S-9, AROCLOR 1254 (10%), Method: PREINCUBATION",inactive; negative
CN(N=O)C(=O)Nc1ccc(Cl)cc1,mutagenic call,"End Point: IN VITRO CHROMOSOMAL ABERRATIONS, Test System: CHINESE HAMSTER V79-E CELLS, Metabolic Activation: NONE",active; weakly positive
COc1cc2c(cc1O)CCN[C@]21CS[C@@H]2c3c(OC(C)=O)c(C)c4c(c3[C@H](COC1=O)N1[C@@H]2[C@H]2c3c(cc(C)c(OC)c3O)C[C@@H]([C@@H]1O)N2C)OCO4,mutagenic call,"Test System: AMES SALMONELLA TYPHIMURIUM, Strain/Indicator: TA98, Metabolic Activation: HAMSTER, LIVER, S-9, AROCLOR 1254, Method: STANDARD PLATE",active; positive
same,mutagenic call,[5],inactive; negative
same,mutagenic call,"Test System: AMES SALMONELLA TYPHIMURIUM, Strain/Indicator: TA98, Metabolic Activation: RAT, LIVER, S-9, AROCLOR 1254, Method: STANDARD PLATE",active; positive
same,mutagenic call,"Test System: AMES SALMONELLA TYPHIMURIUM, Strain/Indicator: TA100, Metabolic Activation: HAMSTER, LIVER, S-9, AROCLOR 1254, Method: STANDARD PLATE",inactive; negative
same,mutagenic call,[6],inactive; negative
same,mutagenic call,"Test System: AMES SALMONELLA TYPHIMURIUM, Strain/Indicator: TA100, Metabolic Activation: RAT, LIVER, S-9, AROCLOR 1254, Method: STANDARD PLATE",inactive; negative
same,mutagenic call,"Test System: Mouse lymphoma, Strain/Indicator: L5178Y (tk+/tk-), Metabolic Activation: None, Method: Suspension/plate",active; positive
same,mutagenic call,"Test System: Mouse lymphoma, Strain/Indicator: L5178Y (tk+/tk-), Metabolic Activation: Rat, Liver, S-9, Aroclor 1254, Method: Suspension/plate",active; positive
O=[N+]([O-])c1cc(-c2ccccc2)ccc1O,mutagenic call,[1],inactive; negative

# Reference: PubChem BioAssay AID1259407 (Chemical Carcinogenesis Research Information System (CCRIS), 2018)
